This is an account of results in article PMC12332266 (Frontiers in Pharmacology, 2025).

Like-named read-outs stand apart in the source and are kept apart here.

Series [1] deals with hiPSC-CM (iCell Cardiomyocytes^2). Kind of series: RTCA CardioECR assessment (impedance and electrophysiology parameters). In short, it runs like this:
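iCell^2 cardiomyocytes on fibronectin-coated ePlates monitored continuously by impedance for cell index, beating rate and amplitude. Field potential duration and spike amplitude were recorded from day 4–6 after monolayer formation. Data were double-normalized to DMSO control and baseline, with variability given as SD.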

Series [2] shares this test system. Kind of series: Intracellular miRNA expression by RT-qPCR in hiPSC-CM pellets after 72-hour treatment. Particulars: for fold induction at 0.3 µM / fold induction at 1 µM / fold induction at 3 µM / fold induction at 10 µM / fold induction at 0.01 µM / fold induction at 0.03 µM / fold induction at 0.1 µM: Homo sapiens. The procedure, abridged:
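After 72-hour treatment and RTCA CardioECR assessment, total RNA from hiPSC-CM pellets was reverse transcribed, pre-amplified and quantified by TaqMan RT-qPCR against a 17-miRNA panel. Triplicates were pooled, so no statistical analysis was performed.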

The conditions of series [3]: ref extensive literature search, cited from earlier work.
Setting [4] is: 72 h, read-out: hsa-miR-7-5p fold change.
[5] abbreviates: 72 h, read-out: hsa-miR-29a-5p fold change.
Setting [6] is: 72 h, read-out: hsa-miR-96-5p fold change.
The mark [7] stands for this setting: 72 h, read-out: hsa-miR-126-3p fold change.
The mark [8] stands for this setting: 72 h, read-out: hsa-miR-146b-5p fold change.
Setting [9] is: 72 h, read-out: hsa-miR-182-5p fold change.
Where [10] appears, read: 72 h, read-out: hsa-miR-185-3p fold change.
Setting [11] is: 72 h, read-out: hsa-miR-187-3p fold change.
[12] abbreviates: 72 h, read-out: hsa-miR-208b-3p fold change.
Setting [13] is: 72 h, read-out: hsa-miR-[…] change.
Where [14] appears, read: hiPSC-CM, 72-hour treatment, lowest concentration causing at least 20% change from baseline.
Setting [15] is: lowest concentration tested which produced miRNA upregulation (fold change ≥2), 72 h.

In the case of `CCCN1C[C@H](CSC)C[C@@H]2c3cccc4[nH]cc(c34)C[C@H]21` [Pergolide], the “Contractility Amplitude MEC” value in series [1] (human, 72 h) is 0.3 nM. Besides, the “Spike Amplitude (SA) MEC” value in series [1] (human, 72 h) is reported as 10 µM. Further, in series [2], the “miRNAs hiPSC-CM pellet, MEC overall” value worked out at 0.3 µM. Besides, the “miRNAs upregulated at the MEC overall (hiPSC-CM pellet)” value (“miRNAs upregulated at the MEC overall” for short) in series [2] is listed as “miR-96-5p, miR-146b-5p”. Further, the fold induction at 0.3 µM was found to be 1 in series [2] (setting [4]); 1 in series [2] (setting [5]); 2.8 in series [2] (setting [6]); 1.2 in series [2] (setting [7]); 4.3 in series [2] (setting [8]); 0.5 in series [2] (setting [9]). The fold induction at 0.3 µM amounted to 1.1 in series [2] (setting [10]), 0.6 in series [2] (setting [11]), 1.5 in series [2] (setting [12]) and 0.9 in series [2] (setting [13]). In addition, the fold induction at 1 µM in series [2] (setting [4]) stood at 0.7; in series [2] (setting [5]) it was 0.2; in series [2] (setting [6]), 5.6; in series [2] (setting [7]), 1.1; in series [2] (setting [8]) it was 6.1; in series [2] (setting [9]), 2.2. For the same compound, the fold induction at 1 µM was 5.6 in series [2] (setting [10]); 0.9 in series [2] (setting [11]); 2.2 in series [2] (setting [12]); 5.2 in series [2] (72 h, read-out: hsa-miR-365a-5p fold change); 1.1 in series [2] (setting [13]). For the same compound, the fold induction at 3 µM in series [2] (setting [4]) came to 1.4; in series [2] (setting [7]), 1.1; in series [2] (setting [8]), 20.8; in series [2] (setting [9]), 0.9; in series [2] (setting [10]), 7.2; in series [2] (setting [11]) it was 21.8. Besides, the fold induction at 3 µM was 2.6 in series [2] (setting [12]) and 1.7 in series [2] (setting [13]). Besides, the fold induction at 10 µM in series [2] (setting [4]) worked out at 1; in series [2] (setting [7]) it was 2; in series [2] (setting [8]) it was 1.1; in series [2] (setting [9]) it was 2.2; in series [2] (setting [10]), 1.9; in series [2] (setting [11]), 0.6. Also, the fold induction at 10 µM was 2.5 in series [2] (setting [12]) and 1.4 in series [2] (setting [13]). Besides, the Cmax total in series [3] (Supplementary Table 1) and in series [3] (Table 1) was 12700 nM throughout.
As for `CC(C)C[C@H](NC(=O)[C@H](Cc1ccccc1)NC(=O)c1cnccn1)B(O)O` [Bortezomib], the “RTCA, MEC (CI)” value in series [1] (hiPSC-CM, change ≥20%, Table 2) was 0.03 µM. For the same compound, in series [1] (human, 72 h), the “Beating Rate MEC” value was found to be 0.1 µM, the “Beating rate (BR) MEC” value was 0.1 µM, the “Contractility Amplitude MEC” value amounted to 100 nM and the “Field Potential Duration MEC” value worked out at 0.1 µM. Moreover, the “Spike Amplitude (SA) MEC” value in series [1] (human, 72 h) is 0.1 µM. In series [2], the “miRNAs hiPSC-CM pellet, MEC overall” value is given as 0.01 µM and the “miRNAs upregulated at the MEC overall” value is “miR-126-3p, miR-182-5p, miR-185-3p, miR-187-3p, miR-7-5p”. The Cmax total in series [3] (Supplementary Table 1) was 140 to 2800 nM. Also, in series [3] (Table 1), the Cmax total is 140 to 2800 nM.
With `CCCCCNC(=N)N/N=C/c1c[nH]c2ccc(OC)cc12` [Tegaserod], in series [1] (hiPSC-CM, 72-hour treatment, at least 10% change), the “Field Potential Duration MEC” value amounted to 0.1 µM. The “Beating rate (BR) MEC” value in series [1] (setting [14]) is reported as “ND (ND – not detected, magnitude of change was lower than 20%)”. In addition, the “Cell index (CI) MEC” value in series [1] (setting [14]) is on record as “ND (ND – not detected, magnitude of change was lower than 20%)”. Besides, in series [1] (hiPSC-CM, change ≥20%, Table 2), the “RTCA, MEC (BR)” value is “ND (ND – not detected, magnitude of change was lower than 20% for CI/BR)”. Further, in series [1] (hiPSC-CM, change ≥20%, Table 2), the “RTCA, MEC (CI)” value is given as “ND (ND – not detected, magnitude of change was lower than 20% for CI/BR)”. Moreover, the “Spike Amplitude (SA) MEC” value in series [1] (human, 72 h) is reported as 0.01 µM. In addition, the fold induction at 0.01 µM was determined as 0.8 in series [2] (setting [4]); 2 in series [2] (setting [7]); 0.5 in series [2] (setting [8]); 1.8 in series [2] (setting [9]); 0.7 in series [2] (setting [10]); 2.5 in series [2] (setting [11]). For the same compound, the fold induction at 0.01 µM is 1.8 in series [2] (setting [12]) and 0.8 in series [2] (setting [13]). For the same compound, the fold induction at 0.03 µM in series [2] (setting [4]) turned out to be 1.4; in series [2] (setting [7]), 4.9; in series [2] (setting [8]), 0.7; in series [2] (setting [9]), 3.9; in series [2] (setting [10]) it was 1.3; in series [2] (setting [11]), 2. Moreover, the fold induction at 0.03 µM in series [2] (setting [12]) is 1.2; in series [2] (setting [13]) it was 0.8. The fold induction at 0.1 µM amounted to 1.3 in series [2] (setting [4]); 0.9 in series [2] (setting [7]); 1.2 in series [2] (setting [8]); 1.9 in series [2] (setting [9]); 0.9 in series [2] (setting [10]); 2 in series [2] (setting [11]). Further, the results for the fold induction at 0.1 µM in series [2] (setting [12]) and in series [2] (setting [13]) were 1.7 and 0.9, respectively. Also, the fold induction at 0.3 µM was 2 in series [2] (setting [4]); 3.2 in series [2] (setting [7]); 0.9 in series [2] (setting [8]); 15.7 in series [2] (setting [9]); 1 in series [2] (setting [10]); 3.7 in series [2] (setting [11]). The fold induction at 0.3 µM in series [2] (setting [12]) worked out at 1.4; in series [2] (setting [13]) it was 0.7. The “miRNAs upregulated at the MEC overall” value in series [2] (fold change ≥2, 72 h) is given as “miR-126-3p, miR-187-3p”. In addition, the “miRNAs hiPSC-CM pellet, MEC overall” value in series [2] (setting [15]) worked out at 0.01 µM. The Cmax total in series [3] (Supplementary Table 1) and in series [3] (Table 1) was 80 nM each time.
With `COc1cccc2c1C(=O)c1c(O)c3c(c(O)c1C2=O)C[C@@](O)(C(C)=O)C[C@@H]3O[C@H]1C[C@H](N)[C@H](O)[C@H](C)O1` [Daunorubicin], the “RTCA, MEC (CI)” value in series [1] (human) is recorded as 0.1 µM (CI, BR). Also, in series [1] (human, 72 h), the “Beating Rate MEC” value is reported as 0.1µM (+21%), the “Beating rate (BR) MEC” value is 0.1 (+21%) µM, the “Contractility Amplitude MEC” value was 0.3µM (-82%) and the “Field Potential Duration MEC” value is reported as 0.1 µM. Besides, in series [1] (human, 72 h), the “RTCA, MEC (BR)” value is on record as 0.1 µM (CI, BR) and the “Spike Amplitude (SA) MEC” value is reported as 0.1µM (-93%). Besides, in series [2], the “miRNAs hiPSC-CM pellet, MEC overall” value was 0.1 µM and the “miRNAs upregulated at the MEC overall” value is “miR-96 -5p, miR-185-3p, miR-187-3p, miR-365a-5p”. For the same compound, the Cmax total in series [3] (Supplementary Table 1) was 310 to 7840 nM. In addition, the Cmax total in series [3] (Table 1) was 310 to 7840 nM.
As for `CS(=O)(=O)CCNCc1ccc(-c2ccc3ncnc(Nc4ccc(OCc5cccc(F)c5)c(Cl)c4)c3c2)o1` [Lapatinib], in series [1] (hiPSC-CM, change ≥20%, Table 2), the “RTCA, MEC (CI)” value is given as “ND (ND – not detected, magnitude of change was lower than 20% for CI/BR)”. Also, in series [1] (human, 72 h), the “Field Potential Duration MEC” value was 0.1 µM and the “Spike Amplitude (SA) MEC” value came to 0.1 µM. Further, in series [2], the “miRNAs hiPSC-CM pellet, MEC overall” value was determined as 0.1 µM and the “miRNAs upregulated at the MEC overall” value is given as “miR-126-3p, miR-146b-5p, miR-182-5p, miR-187-3p”. The Cmax total in series [3] (Supplementary Table 1) is 4180 nM. In addition, in series [3] (Table 1), the Cmax total is 4180 nM.
`CCN(CC)CCNC(=O)c1c(C)[nH]c(/C=C2\C(=O)Nc3ccc(F)cc32)c1C` [Sunitinib]: the “Beating Rate MEC” value in series [1] (hiPSC-CM, 72-hour treatment, at least 20% change, Supplementary Table 1) was determined as 1 µM. Besides, the “Beating rate (BR) MEC” value in series [1] (setting [14]) worked out at 1 µM. Moreover, the “RTCA, MEC (BR)” value in series [1] (hiPSC-CM, change ≥20%, Table 2) is on record as 1 µM (BR). Besides, the “Spike Amplitude (SA) MEC” value in series [1] (human, 72 h) was 0.01 µM. For the same compound, in series [2] (setting [15]), the “miRNAs hiPSC-CM pellet, MEC overall” value is 0.01 µM. Also, the Cmax total in series [3] (Supplementary Table 1) is 181 to 250 nM; in series [3] (Table 1), 180 to 250 nM.
